“And” between values parts separate entries of the source, which are not always exact repeats. Equal values may be shown once. Read-outs that look alike come from different tables or passages of the source.
Target: HIV-1LAI envelope gp120 (Human immunodeficiency virus type 1 group M subtype B, UniProt P03377)
Assay type: binding
Details: for number of radioactive decays (counts) counted: human CD4 21-mer scan, empty control 2075; for Relative % of Control: mean of two syntheses and binding experiments ± average deviation, wild-type = 100%; for Counts per 20′ Average-background: CCR5 18-mer scan, radiolabeled HIV-1LAI gp120; for Binding Results For Window Length (counts bound-background), 9 / Binding Results For Window Length (counts bound-background), 12 / Binding Results For Window Length (counts bound-background), 15 / Binding Results For Window Length (counts bound-background), 18: STRL33 amino terminus; for Binding Results For Window Length (counts bound-background), 9: 9-mer starting at the first residue of the printed sequence; for Binding Results For Window Length (counts bound-background), 12: 12-mer starting at the first residue of the printed sequence; for Binding Results For Window Length (counts bound-background), 15: 15-mer starting at the first residue of the printed sequence; for Binding Results For Window Length (counts bound-background), 18: 18-mer starting at the first residue of the printed sequence
[1] = Panel A, 21-mers of CD4, empty control 515 and 617
[2] = CXCR4 18-mer scan, background subtracted, empty control 0
[3] = CXCR4 18-mer scan, empty control 412
[4] = STRL33 18-mer scan, background subtracted, first of two count columns
[5] = STRL33 18-mer scan, background subtracted, second of two count columns
[6] = Panel C, 15-mers and 18-mers of CD4, empty control 556
[7] = Panel D, 9-mers and 12-mers of CD4, empty control […]
[8] = Panel E, 9-mers and 12-mers of CD4, empty control 571
[9] = Panel B, 15-mers and 18-mers of CD4, empty control 575
[10] = Panel G, alanine replacements and serial truncations (Z) of CD4 polypeptides, empty control 580
[11] = Panel F, sequential alanine replacements of CD4 polypeptides, duplicate series, empty control 569

PLAFTVEKLTGSGELWWQAER
COUNTS of radiolabeled gp120 retained [1]: 2647 counts

IVILSCYCIIISKLSHSK
radioactive counts recorded in twenty minutes [2]: 277 counts
radioactive counts recorded in twenty minutes [3]: 689 counts

KVTSLLIWVISLLVSLPQ
radioactive counts recorded in twenty minutes [4]: −39.5 counts
radioactive counts recorded in twenty minutes [5]: −118.5 counts

QLQKNLTCEVWGPTSPKLMLS [human CD4 321-341]
number of radioactive decays (counts) counted: 1856 counts

KASSIVYKKEGEQVE
COUNTS of radiolabeled gp120 retained [6]: 563 counts

THLLQGQSLTLT
COUNTS of radiolabeled gp120 retained [7]: 646 counts

EGEQVEFSFPLAFTVEKLTGS
COUNTS of radiolabeled gp120 retained [1]: 739 counts

LAFQKASSIVYK
COUNTS of radiolabeled gp120 retained [8]: 465 counts

QLLVFGLTANSDTHLLQG
COUNTS of radiolabeled gp120 retained [9]: 574 counts

KIDIVVLAFQKASSIVYK
COUNTS of radiolabeled gp120 retained [6]: 779 counts

AFQKASSIVYKK
COUNTS of radiolabeled gp120 retained [8]: 597 counts

DIVVLAFQKASS
COUNTS of radiolabeled gp120 retained [8]: 746 counts

LTGSGELWW
COUNTS of radiolabeled gp120 retained [8]: 550 counts

NKEAKVSKREKAVWVLNPEAG
number of radioactive decays (counts) counted: 1735 counts

KLVKDIGCLPYLGVSHQW [STRL33 segment 301-318]
radioactive counts recorded in twenty minutes [4]: −2.5 counts
radioactive counts recorded in twenty minutes [5]: 27.5 counts

AYNQQAKRMTWGKVTSLL [STRL33 segment 137-154]
radioactive counts recorded in twenty minutes [4]: 55.5 counts
radioactive counts recorded in twenty minutes [5]: 4.5 counts

LVMGYQKKLRSMTDKYRL [CXCR4 segment 61-78]
radioactive counts recorded in twenty minutes [2]: 105 counts
radioactive counts recorded in twenty minutes [3]: 517 counts

LLVFGLTANSDT
COUNTS of radiolabeled gp120 retained [7]: 533 counts

TCITVDRFIVVVKATKAY
radioactive counts recorded in twenty minutes [4]: 89.5 counts
radioactive counts recorded in twenty minutes [5]: 346.5 counts

QKASSIVYK
COUNTS of radiolabeled gp120 retained [8]: 494 counts

KIEDSDTYICEVEDQKEE
COUNTS of radiolabeled gp120 retained [9]: 858 counts

LTANSDTHL
COUNTS of radiolabeled gp120 retained [7]: 596 counts

ICDRFYPNDLWVVVFQFQ [CXCR4 segment 185-202]
radioactive counts recorded in twenty minutes [2]: 306 counts
radioactive counts recorded in twenty minutes [3]: 718 counts

MDYQVSSPIYDIAYYTSE
Relative % of Control (CCR5 (1-18) alanine variants): 253 ± 19%

WDQGNFPLIIKNLKIEDS
COUNTS of radiolabeled gp120 retained [9]: 626 counts

GEQVAFSFPLAFTVE
COUNTS of radiolabeled gp120 retained [10]: 16668 counts and 13930 counts

SQYQFWKNFQTLKIVILG [CCR5 segment 185-]
Counts per 20′ Average-background (background subtracted): 1572 counts per 20′

SFPLAFTVEKLTGSGELW
COUNTS of radiolabeled gp120 retained [6]: 656 counts

SSSKSWITFDLKNKEVSVKRV [human CD4 246-266]
number of radioactive decays (counts) counted: 1761 counts

EFSFPLAFTVEKLTGSGELWW
COUNTS of radiolabeled gp120 retained [1]: 681 counts

FSKVFLPCMYLVVFVCGL [STRL33 segment 29-46]
radioactive counts recorded in twenty minutes [4]: 534.5 counts
radioactive counts recorded in twenty minutes [5]: 633.5 counts

LNTFQEFFGLNNCSSSNR [CCR5 segment 257-]
Counts per 20′ Average-background (background subtracted): 293 counts per 20′

IDIVVLAFQKASSIV
COUNTS of radiolabeled gp120 retained [6]: 865 counts

YKKEGEQVE
COUNTS of radiolabeled gp120 retained [8]: 518 counts

SSIVYKKEGEQVEFSFPL
COUNTS of radiolabeled gp120 retained [6]: 756 counts

TVTFGVVTSVITWVVAVF
Counts per 20′ Average-background (background subtracted): −25 counts per 20′

QLLVFGLTA
COUNTS of radiolabeled gp120 retained [7]: 822 counts

DSSQEEHQAFLQFSK
Binding Results For Window Length (counts bound-background), 9 (background subtracted): 147 counts
Binding Results For Window Length (counts bound-background), 12 (background subtracted): 882 counts
Binding Results For Window Length (counts bound-background), 15 (background subtracted): 4588 counts

VFVCGLVGNSLVLVISIF [STRL33 segment 41-58]
radioactive counts recorded in twenty minutes [4]: 570.5 counts
radioactive counts recorded in twenty minutes [5]: 284.5 counts

NANFNKIFLPTIYSIIFL [CXCR4 segment 33-50]
radioactive counts recorded in twenty minutes [2]: 173 counts
radioactive counts recorded in twenty minutes [3]: 585 counts

TVLQNQKKVEFKIDIVVL
COUNTS of radiolabeled gp120 retained [6]: 655 counts

GEQVEFSFP
COUNTS of radiolabeled gp120 retained [8]: 697 counts

NFPLIIKNLKIEDSD
COUNTS of radiolabeled gp120 retained [9]: 654 counts

MEGISIYTSDNYTEAMGS
Relative % of Control (CXCR4 (1-18) alanine variants): 56 ± 7%

QKKVEFKIDIVV
COUNTS of radiolabeled gp120 retained [8]: 595 counts

ASSIVYKKE
COUNTS of radiolabeled gp120 retained [8]: 600 counts

FVGNMLVILILINCKRLK [CCR5 segment 45-62]
Counts per 20′ Average-background (background subtracted): 62 counts per 20′

DLWVVVFQFQHIMVGLIL [CXCR4 segment 193-210]
radioactive counts recorded in twenty minutes [2]: 422 counts
radioactive counts recorded in twenty minutes [3]: 834 counts

FSFPLAFTVEKLTGS
COUNTS of radiolabeled gp120 retained [6]: 672 counts

KLQSLTDVFLVNLPLADL [STRL33 segment 61-78]
radioactive counts recorded in twenty minutes [4]: 412.5 counts
radioactive counts recorded in twenty minutes [5]: 348.5 counts

TANSDTHLL
COUNTS of radiolabeled gp120 retained [7]: 554 counts

NRLDQAMQVTETLGMTHC [CCR5 segment 273-]
Counts per 20′ Average-background (background subtracted): 10 counts per 20′

KVEFKIDIVVLAFQK
COUNTS of radiolabeled gp120 retained [6]: 1051 counts

YSIIFLTGIVGNGLVILV [CXCR4 segment 45-62]
radioactive counts recorded in twenty minutes [2]: 123 counts
radioactive counts recorded in twenty minutes [3]: 535 counts

RMSQIKRLLSEKKTCQCPHRF
number of radioactive decays (counts) counted: 2020 counts

NQKKVEFKI
COUNTS of radiolabeled gp120 retained [8]: 597 counts

CEVEDQKEEVQLLVFGLT
COUNTS of radiolabeled gp120 retained [9]: 3797 counts

GEQVEFSFPLAF
COUNTS of radiolabeled gp120 retained [8]: 1729 counts

LIIKNLKIEDSDTYI
COUNTS of radiolabeled gp120 retained [9]: 542 counts

EEVQLLVFGLTANSA
COUNTS of radiolabeled gp120 retained [11]: 22206 counts and 18227 counts

EDQKEEVQLLVFGLT
COUNTS of radiolabeled gp120 retained [9]: 3633 counts

DSDTYICEVEDQKEE
COUNTS of radiolabeled gp120 retained [9]: 973 counts

VEFKIDIVVLAFQKA
COUNTS of radiolabeled gp120 retained [6]: 1005 counts

MAEHDYHEDYGFSSFNDS [STRL33 segment 1-18]
radioactive counts recorded in twenty minutes [4]: 1178.5 counts
radioactive counts recorded in twenty minutes [5]: 1320.5 counts
Binding Results For Window Length (counts bound-background), 9 (background subtracted): 160 counts
Binding Results For Window Length (counts bound-background), 12 (background subtracted): 625 counts
Binding Results For Window Length (counts bound-background), 15 (background subtracted): 1239 counts
Binding Results For Window Length (counts bound-background), 18 (background subtracted): 1386 counts

NLKIEDSDT
COUNTS of radiolabeled gp120 retained [7]: 512 counts

SVADLLFVITLPFWAVDA [CXCR4 segment 81-98]
radioactive counts recorded in twenty minutes [2]: 253 counts
radioactive counts recorded in twenty minutes [3]: 665 counts

KKLPLHLTLPQALPQYAGSGN [human CD4 276-296]
number of radioactive decays (counts) counted: 1922 counts

FKIDIVVLAFQKASS
COUNTS of radiolabeled gp120 retained [6]: 1001 counts

DYGFSSFNDSSQEEHQAF [STRL33 segment 9-26]
radioactive counts recorded in twenty minutes [4]: 8579.5 counts
radioactive counts recorded in twenty minutes [5]: 8909.5 counts
Binding Results For Window Length (counts bound-background), 9 (background subtracted): 701 counts
Binding Results For Window Length (counts bound-background), 12 (background subtracted): 573 counts
Binding Results For Window Length (counts bound-background), 15 (background subtracted): 595 counts
Binding Results For Window Length (counts bound-background), 18 (background subtracted): 440 counts

VLQNQKKVEFKIDIV
COUNTS of radiolabeled gp120 retained [6]: 605 counts

EFKIDIVVLAFQKASSIVYKK
COUNTS of radiolabeled gp120 retained [1]: 649 counts

TCTVLQNQKKVEFKI
COUNTS of radiolabeled gp120 retained [6]: 510 counts

FNDSSQEEEQAFLQFSKV
Binding Results For Window Length (counts bound-background), 9 (background subtracted): 246 counts
Binding Results For Window Length (counts bound-background), 12 (background subtracted): 470 counts
Binding Results For Window Length (counts bound-background), 15 (background subtracted): 4089 counts
Binding Results For Window Length (counts bound-background), 18 (background subtracted): 4678 counts

AVVHAVFALKARTVTFGV
Counts per 20′ Average-background (background subtracted): 34 counts per 20′

ENTVHKWISITEALAFFH [CXCR4 segment 277-294]
radioactive counts recorded in twenty minutes [2]: 315 counts
radioactive counts recorded in twenty minutes [3]: 727 counts

CTVLQNQKKVEFKIDIVV
COUNTS of radiolabeled gp120 retained [6]: 553 counts

THLLQGQSLALTLES
COUNTS of radiolabeled gp120 retained [11]: 8158 counts and 4749 counts

EGEQVEFSFPLAFTV
COUNTS of radiolabeled gp120 retained [6]: 3270 counts

QGNFPLIIKNLK
COUNTS of radiolabeled gp120 retained [7]: 533 counts

NQKKVEFKIDIV
COUNTS of radiolabeled gp120 retained [8]: 532 counts

SSIVYKKEGEQV
COUNTS of radiolabeled gp120 retained [8]: 615 counts

VYKKEGEQVEFSFPL
COUNTS of radiolabeled gp120 retained [6]: 714 counts

ALKTTVILILAFFACWLP [CXCR4 segment 237-254]
radioactive counts recorded in twenty minutes [2]: 261 counts
radioactive counts recorded in twenty minutes [3]: 673 counts

SSIVYKKEGEQVEFSFPLAFT
COUNTS of radiolabeled gp120 retained [1]: 28068 counts

SIYTSDNYTEEMGSGDYD [CXCR4 segment 5-22]
radioactive counts recorded in twenty minutes [2]: 71 counts
radioactive counts recorded in twenty minutes [3]: 483 counts

GEQVEFSFALAFTVE
COUNTS of radiolabeled gp120 retained [10]: 20480 counts and 19480 counts

THLLQGQSLTLTLES
COUNTS of radiolabeled gp120 retained [9]: 1874 counts
COUNTS of radiolabeled gp120 retained [11]: 7756 counts and 6545 counts and 4787 counts and 5947 counts
COUNTS of radiolabeled gp120 retained [10]: 10850 counts and 9756 counts

GLVILVMGYQKKLRSMTD [CXCR4 segment 57-74]
radioactive counts recorded in twenty minutes [2]: 157 counts
radioactive counts recorded in twenty minutes [3]: 569 counts

AKRFCKCCSIFQQEAPER [CCR5 segment 317-]
Counts per 20′ Average-background (background subtracted): 64 counts per 20′

Reference: patent publication US20030068615A1, “Polypeptides that bind HIV gp120 and related nucleic acids, antibodies, compositions, and methods of use” (priority 1999, published 2003)
